Here are results for five molecules from patent US20250017856A1, “CO-FORMULATION AND CO-DELIVERY OF IONIZABLE COLLOID FORMING DRUGS WITH NUCLEIC ACIDS” (THE GOVERNING COUNCIL OF THE UNIVERSITY OF TORONTO, priority 2023, published 2025).

Series [1] can be described thus: RNA encapsulation efficiency (modified Quant-iT RiboGreen assay) and loading. The format is physicochemical. The text has this:
(§1) [NT] antisense (SEQ ID NO: 2): [NT] where “d” denotes a DNA base), siFLuc-2 (sense (SEQ ID NO: 3): [NT] antisense (SEQ ID NO: 4): [NT] where “d” denotes a DNA base and “m” indicates a 2'-O-methyl RNA base), sinLuc (sense (SEQ ID NO: 5): [NT] antisense SEQ ID NO: 6): [NT] where “d” denotes a DNA base), […]1 (sense (SEQ ID NO: 7): [NT] antisense (SEQ ID NO: 8): [NT] where “d” denotes a DNA base and “m” indicates a 2'-O-methyl RNA base), siNT (sense (SEQ ID NO: 9): [NT] antisense (SEQ ID NO: 10): [NT] where “d” denotes a DNA base and “m” indicates a 2'-O-methyl RNA base), mFLuc (EZ Cap Firefly Luciferase mRNA (5-moUTP), ApexBio), rRNA or RNA from Torula utilis yeast (T.U. RNA) was diluted in citrate buffer (50 or 25 mM, pH 4), malate buffer (25 mM, pH 4.0) or acetate buffer (25 mM, pH 4.0). A lipid/drug mix concentration of 5.5 mM was used with a total flow rate of 9 mL/min at a 3:1 ratio of aqueous to organic phase. […] After formulation, buffer exchange into PBS or Tris-buffered saline (TBS; pH 8.5) was performed using Amicon Ultra-4 centrifugal filters (molecular weight cut-off 10 kDa). Hydrodynamic diameter, polydispersity index (PDI), and scattering intensity were measured by dynamic light scattering (DLS) using a DynaPro Plate Reader II (Wyatt Technologies). The instrument was configured with a 60 mW 830 nm laser and a detector angle of 158°. A 25 μL sample of each formulation was pipetted into each well of a 384-well plate and measured with 20 acquisitions per sample at 25° C. […] Quant-iT RiboGreen reagent was added, and fluorescence intensity was quantified using a Tecan Infinite […] plate reader.

Series [2] has as its system firefly luciferase expression in mouse liver. Description: In vivo liver bioluminescence after i.v. injection of mFLuc nanoparticles. Details: species or system BALB/c mice. The following applies: tail vein, 1 mg/kg mRNA, 4 and 24 h. The procedure: Animal study protocols were approved by the Animal Care Committee at the University of Toronto and experiments were performed in accordance with the Guide to Care and Use of Experimental Animals (Canadian Council on Animal Care). FXNPs with encapsulated mFLuc and DIR (0.5 mol %) were administered (1 mg/kg in terms of mRNA) via tail vein injection to BALB/c mice. After 4 h and 24 h, mice were anesthetized using isoflurane and injected intraperitoneally with 150 mg/kg VivoGlo™ luciferin (Promega, Madison, WI). Whole-body luminescence was acquired by a PerkinElmer In-Vivo Imaging System Spectrum instrument after 10-20 minutes.

Series [3] is described as follows: Zeta potential (Malvern Zetasizer). It is filed as physicochemical. The following applies: FxNP, siFLuc, DSPC. As for the experimental part:
Zeta potential was measured by diluting FXNPs in phosphate to an ion concentration of 1 mM and using a Malvern Zetasizer Nano ZS instrument.

Series [4] can be described thus: Hydrodynamic diameter and polydispersity index by dynamic light scattering. It is filed as physicochemical.
Source text: as §1

In the next series the test system is FLuc in SKOV3-FLuc cells. Description: Model gene knockdown, firefly luciferase. The format is cell-based. The procedure: For single-dose studies, 5×10^3 SKOV3-FLuc or 2×10^3 Vero-nLucP cells in 100 μL were plated in each well of a white-wall 96-well plate (Costar 3610) and allowed to adhere overnight. FXNP suspensions were diluted in PBS and 10 μL of each tested formulation was dosed in triplicate, followed by 100 μL of complete cell growth media to promote mixing. The final encapsulated siRNA concentration in each well was 50.0 nM. For dose-response studies, 1.25×10^3 SKOV3-FLuc cells in 25 μL were plated in each well of a white-wall 384-well plate (Greiner Bio-one 781073) and allowed to adhere overnight. Nanoparticle suspensions were diluted in PBS and 5 μL of each tested formulation was dosed in triplicate, followed by 20 μL of complete cell growth media to promote mixing. The final encapsulated siRNA concentration in each well is specified in each figure. For all studies, the plate was incubated for 24 h followed by removal of the media. For SKOV3-FLuc cells, fresh media was added, and the plate was incubated for an additional 24 h before removal of the media. Total cellular metabolic activity was quantified by addition of PrestoBlue™ according to the manufacturer's instructions, after which the reagent was subsequently removed, and expression of either firefly luciferase (SKOV3-FLuc) or nano luciferase (Vero-nLucP) was determined by Steady-Glo® Luciferase Assay System or Nano-Glo® Luciferase Assay System, respectively. Luminescence was measured using a Tecan Infinite Pro 200 plate reader. Cell metabolic activity and reporter gene expression are represented relative to cells treated with an equivalent volume of PBS. Reporter gene expression is normalized to cell metabolic activity. For dose-response studies, IC50 values were determined by non-linear regression analysis using eq. 3

For the next series, the system named is SKOV3 cells. Briefly: Cellular uptake of DiD-labelled nanoparticles by fluorescence microscopy. The following applies: with DOPC or DSPE; 20 nM T.U. RNA, 3 h. The format is cell-based. As for the experimental part:
2.5-5.0×10^3 SKOV3 cells or 1.0×10^4 T47D cells in 25 μL were plated in each well of a 384-well plate (Greiner Bio-One 781097) and allowed to adhere overnight. For endocytosis blocking studies, cells were washed once with Hank's Balanced Salt Solution (HBSS), and then fresh media containing an endocytosis blocker was added and plates were incubated at 37° C. for 30 min prior to dosing. For ApoE supplementation studies and endocytosis-blocking studies, serum free media, serum free media supplemented with ApoE (1.5 μg/mL), complete media, or complete media with hydroxydynasore (20 μM) was added for 30 min prior to dosing). […] The plate was incubated at 37° C. for 3 h after which the media was removed, and the cells were washed with HBSS, fixed for 15 min with 4% (m/v) PFA in PBS, and stained for 15 min with 5 μg/mL Hoechst in PBS before imaging by wide-field fluorescence microscopy imaging as described below.
Fluorescence images were acquired using a Zeiss Apotome Live Cell System (Axio Observer Z.1 inverted fluorescence microscope) with a long working distance 40× Plan Neofluor objective (NA=0.6, Carl Zeiss Canada), and X-Cite 120 LED fluorescence lamp (Lumen Dynamics), and an […]

The next series has as its system T47D-R cells. Briefly: Confirmation of palbociclib resistance. The format is cell-based. The following applies: Homo sapiens; palbociclib-resistant T47D cells (T47D-R). As for the experimental part: SKOV3 cells were obtained from ATCC. SKOV3-luc cells were obtained from Cell Biolabs. Vero-E6-nLucP cells were a generous gift from Roman Melnyk. T47D cells were a gift from B. Neel (University Health Network). Palbociclib-resistant T47D cells (T47D-R) were developed by dose escalation of palbociclib up to 500-1000 nM over 6-12 months and was confirmed by a palbociclib IC50 greater than […]. Parental T47D cells (T47D-P) were cultured over the same time frame without palbociclib treatment. Cells were maintained in a humified incubator at 37° C. with 5% atmospheric CO2. RPMI 1640 (SKOV3, T47D) or EMEM (Vero-E6) were used as a base media. Cells were grown in 75 cm^2 tissue culture flasks with 10 mL of media supplemented with 10% FBS, 10 UI/mL penicillin and 10 μg/mL streptomycin. The cells were passaged once per week following detachment with trypsin-EDTA, replacement of the supernatant with fresh media, and subculture into a new flask with fresh media. Subculture ratios between 1:4 and 1:50 were used.

Where [5] appears, read: no cholesterol versus standard formulation.

Values joined by “and” are separate entries in the source; they are usually repeats but may differ in a detail not shown here. Equal values may be shown once. Where only a bound is given, the exact number is not on record here.

As to `C[C@]12CC[C@@H]3c4ccc(O)cc4C[C@@H](CCCCCCCCC[S+]([O-])CCCC(F)(F)C(F)(F)F)[C@H]3[C@@H]1CC[C@@H]2O` (stereo partly shown) [FV, fulvestrant, reference compound], the “encapsulation and loading efficiencies of siRNA (in words)” value in series [1] (DSPC formulations) is on record as “low”. In series [1] (FxNP, siFLuc, DSPC), the “Encapsulation efficiency (%)” value is recorded as 14.5%, the “Small molecule drug mass %” value worked out at 52.8% and the siRNA mass % stood at 0.9%. The liver bioluminescence entry in series [2] is given as “did not show bioluminescence above the baseline”. For the same molecule, the “Zeta potential (mV)” value in series [3] was −19.23 mV. Besides, in series [4] (FxNP, siFLuc, DSPC), the “Hydrodynamic diameter (nm)” value came to 204.7 nm and the PDI was 0.102.

One may read the IC50 as the concentration that inhibits the measured activity by half. A low value points to inhibition by little substance. In the case of `Cc1ccc(C(=O)OCc2ccc([C@@H](CN)C(=O)Nc3ccc4cnccc4c3)cc2)c(C)c1` [netarsudil], the IC50 with FLuc in SKOV3-FLuc cells (50:0 netarsudil:SM-102, narrowed concentration range (<2 nM)) was over 2 nM; in the series with FLuc in SKOV3-FLuc cells (TBS, 40 mol % netarsudil with 10 mol % ALC-0315), 0.32 nM; with FLuc in SKOV3-FLuc cells (TBS, 40 mol % netarsudil with 10 mol % MC3), 0.77 nM; in the series on FLuc in SKOV3-FLuc cells (TBS, 40 mol % netarsudil with 10 mol % SM-102), 0.16 nM; in the series on FLuc in SKOV3-FLuc cells (neutralized in TBS, 50 mol % netarsudil, no ionizable lipid), 3.8 nM.

`Fc1ccc(-n2cc(CCCCN3CCC4(CC3)OCc3ccccc34)c3ccccc32)cc1` [siramesine, reference compound]: the siRNA encapsulation efficiency in series [1] (natively ionizable drug in place of fulvestrant analog, standard formulation) was ~85% and ~95%. Moreover, in series [1] (setting [5]), the “loss of encapsulated siRNA on removal of cholesterol” value is listed as about 70%. In addition, the “nanoparticle formation with RNA cargos of varying molecular weight” value in series [1] (siRNA, T.U. RNA, rRNA, mRNA) is reported as “form nanoparticles encapsulating a range of RNA cargos”. In addition, the “uptake relative to DSPC-based nanoparticles” value in the series on SKOV3 cells is reported as “significantly improve uptake”. In series [4] (setting [5]), the “increase in particle size on removal of cholesterol” value is reported as 4 fold. In series [4] (siRNA, standard formulation), this molecule registered a particle size of about 100 nm.

As to `CC(=O)c1c(C)c2cnc(Nc3ccc(N4CCNCC4)cn3)nc2n(C2CCCC2)c1=O` [palbociclib], in the series on T47D-R cells, the IC50 was over 1000 nM.

`CCCCCCCCCCCOC(=O)CCCCCN(CCO)CCCCCCCC(=O)OC(CCCCCCCC)CCCCCCCC` [SM-102]: in the series with FLuc in SKOV3-FLuc cells (netarsudil:SM-102 0:10), the “effect of removing netarsudil without replacement” value was “decrease in potency and loss of encapsulated siRNA”. In the series on FLuc in SKOV3-FLuc cells (netarsudil:SM-102 0:50), the “change of IC50 on replacing all of the netarsudil with SM-102” value was “non-significant decrease in IC50”.
